Laboratory results reported in patent US11351194B2, “Method for proliferating neural progenitor cells and composition for treating neurological diseases containing proliferated neural progenitor cells” (COLLEGE OF MEDICINE POCHON CHA UNIVERSITY INDUSTRY-ACADEMIC …, priority 2014, dated 2022).

What was measured:
[1] = system: fetal neural progenitor cells; assay: Immunocytochemistry analysis using Ki67, Nestin and DAPI markers; type: cell-based, human; details: for expression of Ki67: in comparison with M1 and M2 (general culture condition), Ps<0.0001, FIG. 3B; for frequency of expression of both Ki67 and Nestin: in comparison with general culture condition, FIG. 3C
Description: (§1) 20 ng/ml of each of bFGF and EGF (available from Peprotech, R&D system) and 10 ml of a B27 supplement (available from GIBCO) were added to 500 ml of a mixed medium of DMEM/F12 (1:1) containing 0.5 ml of Primocin, which is an antibiotic formulation, and then, the fetal neural progenitor cells were cultured under a condition in which 1 μg/ml of DL-alpha-tocopherol acetate (M3), 1 μg/ml of (t)-alpha-tocopherol (M4), or a combination thereof (M5) was added. The resulting fetal neural progenitor cells were compared with those cultured under a general culture condition. Regarding the general culture condition, 20 ng/ml of each of bFGF and EGF and an α-supplement (2.5 mg insulin, 25 mg transferrin, 0.03 μM sodium selenite, 36.5 mg L-glutamine, and 0.75 g L-glucose) were added to 500 ml of a mixed medium of DMEM/F12 (1:1) containing 0.5 ml of Primocin, which is an antibiotic formulation, and then, the fetal neural progenitor cells were cultured therein (M1), or under a condition in which the B27 supplement was further added (M2).
The fetal neural progenitor cells were seeded on a 24-well plate at a density of 1×10^5 cells/well, cultured for 7 days, and then, subjected to immunocytochemistry analysis using Ki67, Nestin, and DAPI markers.

[2] = system: fetal neural progenitor cells; assay: Cytometry (cell number); details: 1 μg/ml, 7 days; compared to general condition; Ps<0.0001; FIG. 2B
Description: The resulting fetal neural progenitor cells were compared with those cultured under a general culture condition. Regarding the general culture condition, 20 ng/ml of each of bFGF and EGF and an α-supplement (2.5 mg insulin, 25 mg transferrin, 0.03 μM sodium selenite, 36.5 mg L-glutamine, and 0.75 g L-glucose) were added to 500 ml of a mixed medium of DMEM/F12 (1:1) containing 0.5 ml of Primocin, which is an antibiotic formulation, and then, the fetal neural progenitor cells were cultured therein (M1), or under a condition in which the B27 supplement was further added (M2).
The fetal neural progenitor cells were seeded on a 6-well plate at a density of 2×10^5 cells/well, cultured for 7 days, and then subjected to cytometry.

[3] = system: fetal neural progenitor cells; assay: Cell viability by MTT assay; type: cell-based, human; details: 7 days
Description: Human neural progenitor cells were isolated from 14 week-old human fetuses. Before obtaining the fetus samples, informed consents that had been sufficiently described to parents in advance were received. In addition, the sample collection and use thereof for research were approved by the Institutional Review Board of the CHA Hospital. Ventral midbrain tissues in the brain of a […] human fetus were isolated according to the method disclosed in Storch et al. 2001; and Milosevic et al. 2006, 2007, and then, dissociated into a single cell suspension by treating the ventral midbrain tissues in a solution containing 0.1 mg/ml of papain and 100 μg/ml of DNase at a temperature of 37° C. for about 30 minutes. The single cell suspension was washed with phosphate buffered saline (PBS), and then, incubated in 50 μg/ml of antipain at a temperature of 37° C. for 30 minutes. The resulting neural progenitor cells were plated, in a monolayer, at a density of 30,000 cells/cm^2, onto a culture dish that was pre-coated with 15 μg/ml of poly-L-omithine and 4 μg/ml of fibronectin, and then, cultured. The cultured fetus neural progenitor cells were seeded on a 96-well plate at a density of 1×10^4 cells/well, cultured for 7 days, and treated with an MTT reagent. Then, by measuring optical density thereof (at a wavelength of 570 nm), the cell viability was analyzed.

[4] = system: fetal neural progenitor cells; assay: Immunocytochemistry analysis using GFAP, Tuj1 and DAPI markers; type: cell-based, human; details: for expression of Tuj1 / expression of GFAP: in comparison with M1 and M2 (general culture condition); for expression of Tuj1: Ps<0.02, FIG. 4C; for expression of GFAP: Ps<0.04, FIG. 4B; for frequency of expression of both GFAP and Tuj1: FIG. 4D
Description: as §1
The neural progenitor cells were seeded on a 24-well plate at a density of 1×10^5 cells/well, cultured for 7 days, and then, subjected to immunocytochemistry analysis using GFAP, Tuj1, and DAPI markers.

[5] = 7 days, printed comparator: cells cultured under normoxia, Ps≤0.0001, FIG. 3D
[6] = 1 μg/ml in medium, in comparison with general culture condition (M1, M2), Ps<0.02, FIG. 1
[7] = hypoxia (oxygen about 0.1% to about 10%) in comparison with normoxia, M3: P<0.009, M4: P<0.01, M5: P<0.001
[8] = 7 days, in comparison with general culture condition, Ps<0.0001
[9] = 7 days, in comparison with general culture condition, Ps<0.0001, FIG. 4E

CC(=O)Oc1c(C)c(C)c2c(c1C)CCC(C)(CCCC(C)CCCC(C)CCCC(C)C)O2 (racemic) [DL-alpha-tocopherol acetate]
expression of Ki67 ([1]; 7 days): increased expression of Ki67 of significance
frequency of expression of both Ki67 and Nestin ([1]; 7 days, Ps≤0.0001): higher frequency of expression of both Ki67 and Nestin together in a statistically significant manner
expression of Dapi [1, 5]: statistically significant increase in the expression of Dapi
number of fetal neural progenitor cells [2]: significantly increased number of fetal neural progenitor cells
cell viability (MTT, optical density 570 nm) [3, 6]: higher cell viability that is statistically significant
cell viability (MTT, optical density 570 nm) [3, 7]: higher cell viability that is statistically significant
expression of Tuj1 ([4]; 7 days): reduced expression of Tuj1 in a statistically significant manner
expression of GFAP ([4]; 7 days): reduced expression of GFAP in a statistically significant manner
frequency of expression of both GFAP and Tuj1 [4, 8]: lower frequency of expression of both GFAP and Tuj1 together
expression of Dapi [4, 9]: statistically significant increase in expression of Dapi

Cc1c(C)c2c(c(C)c1O)CC[C@@](C)(CCC[C@H](C)CCC[C@H](C)CCCC(C)C)O2 [alpha-tocopherol, (t)-alpha-tocopherol]
expression of Ki67 ([1]; 7 days): increased expression of Ki67 of significance
frequency of expression of both Ki67 and Nestin ([1]; 7 days, Ps≤0.0001): higher frequency of expression of both Ki67 and Nestin together in a statistically significant manner
expression of Dapi [1, 5]: statistically significant increase in the expression of Dapi
expression of Dapi ([1]; hypoxia compared with normoxia, M4 P<0.006, M5 P<0.0001): statistically significant increase in the expression of Dapi
number of fetal neural progenitor cells [2]: significantly increased number of fetal neural progenitor cells
cell viability (MTT, optical density 570 nm) [3, 6]: higher cell viability that is statistically significant
cell viability (MTT, optical density 570 nm) [3, 7]: higher cell viability that is statistically significant
expression of Tuj1 ([4]; 7 days): reduced expression of Tuj1 in a statistically significant manner
expression of GFAP ([4]; 7 days): reduced expression of GFAP in a statistically significant manner
frequency of expression of both GFAP and Tuj1 [4, 8]: lower frequency of expression of both GFAP and Tuj1 together
expression of Dapi [4, 9]: statistically significant increase in expression of Dapi
expression of Dapi ([4]; hypoxia in comparison with normoxia, M4: P<0.006): statistically significant increase in the expression of Dapi
